# Assays:
# [1] = target: 5-hydroxytryptamine receptor 1A (Homo sapiens) (UniProt P08908); settings: Compound concentration 10.0 uM
# [2] = organism: Rattus norvegicus; settings: Compound concentration 10.0 uM
# [3] = target: 5'-AMP-activated protein kinase catalytic subunit alpha-2 (Homo sapiens) (UniProt P54646)
# [4] = target: Phosphatidylinositol 5-phosphate 4-kinase type-2 gamma (Homo sapiens) (UniProt Q8TBX8)
# [5] = target: Tyrosine-protein kinase BTK (Homo sapiens) (UniProt Q06187)
# [6] = target: Casein kinase I isoform delta (Homo sapiens) (UniProt P48730)
# [7] = target: Delta-type opioid receptor (Homo sapiens) (UniProt P41143); settings: Compound concentration 10.0 uM
# [8] = target: Atypical kinase COQ8A, mitochondrial (Homo sapiens) (UniProt Q8NI60)
# [9] = test system: Phosphatidylinositol 4,5-bisphosphate 3-kinase catalytic subunit alpha isoform (Homo sapiens), P42336 [E542K]
# [10] = test system: Phosphatidylinositol 4,5-bisphosphate 3-kinase catalytic subunit alpha isoform (Homo sapiens), P42336 [H1047Y]
# [11] = target: Serine/threonine-protein kinase Nek5 (Homo sapiens) (UniProt Q6P3R8)
# [12] = target: RAC-beta serine/threonine-protein kinase (Homo sapiens) (UniProt P31751)
# Sequence of RAC-beta serine/threonine-protein kinase (Homo sapiens) (P31751 whole entry): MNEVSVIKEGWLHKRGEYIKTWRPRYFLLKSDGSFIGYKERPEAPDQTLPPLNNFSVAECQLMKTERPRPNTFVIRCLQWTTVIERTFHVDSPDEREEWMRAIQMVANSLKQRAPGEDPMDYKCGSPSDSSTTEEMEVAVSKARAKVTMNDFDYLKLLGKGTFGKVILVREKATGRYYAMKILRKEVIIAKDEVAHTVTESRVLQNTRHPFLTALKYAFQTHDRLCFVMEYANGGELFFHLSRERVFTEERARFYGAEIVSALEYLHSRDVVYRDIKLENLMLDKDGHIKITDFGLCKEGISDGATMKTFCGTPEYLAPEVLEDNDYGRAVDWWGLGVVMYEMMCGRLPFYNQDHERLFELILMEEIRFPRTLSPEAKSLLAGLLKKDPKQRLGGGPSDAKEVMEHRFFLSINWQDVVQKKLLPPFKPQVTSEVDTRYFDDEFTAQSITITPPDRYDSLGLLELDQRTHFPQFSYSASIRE
# [13] = target: 5-hydroxytryptamine receptor 5A (Homo sapiens) (UniProt P47898); settings: Compound concentration 10.0 uM
# Sequence of 5-hydroxytryptamine receptor 5A (Homo sapiens) (P47898 whole entry): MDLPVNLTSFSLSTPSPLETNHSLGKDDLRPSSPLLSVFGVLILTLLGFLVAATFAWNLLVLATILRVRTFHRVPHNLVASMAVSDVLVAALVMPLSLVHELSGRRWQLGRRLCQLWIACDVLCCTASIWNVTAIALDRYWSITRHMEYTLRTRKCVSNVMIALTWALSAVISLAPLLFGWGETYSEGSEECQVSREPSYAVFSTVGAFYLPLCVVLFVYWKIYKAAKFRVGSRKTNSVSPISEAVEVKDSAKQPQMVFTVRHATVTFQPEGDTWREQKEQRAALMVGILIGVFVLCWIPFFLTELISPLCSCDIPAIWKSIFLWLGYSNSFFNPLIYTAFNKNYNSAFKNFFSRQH
# [14] = target: Myosin light chain kinase (Homo sapiens) (UniProt Q32MK0)
# [15] = target: Beta-2 adrenergic receptor (Homo sapiens) (UniProt P07550); settings: Compound concentration 10.0 uM
# Sequence of Beta-2 adrenergic receptor (Homo sapiens) (P07550 whole entry, looked up): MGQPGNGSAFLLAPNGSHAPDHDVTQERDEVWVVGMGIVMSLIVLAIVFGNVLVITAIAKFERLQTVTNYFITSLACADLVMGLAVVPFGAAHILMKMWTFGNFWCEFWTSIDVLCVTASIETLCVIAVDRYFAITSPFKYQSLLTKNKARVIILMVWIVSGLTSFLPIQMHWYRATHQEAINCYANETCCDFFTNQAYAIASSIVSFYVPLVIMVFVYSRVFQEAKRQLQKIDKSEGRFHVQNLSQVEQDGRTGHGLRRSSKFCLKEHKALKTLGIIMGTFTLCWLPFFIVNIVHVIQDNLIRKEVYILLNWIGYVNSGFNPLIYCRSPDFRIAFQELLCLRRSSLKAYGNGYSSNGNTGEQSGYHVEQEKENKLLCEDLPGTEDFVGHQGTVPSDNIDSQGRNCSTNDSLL
# [16] = target: Serine/threonine-protein kinase LATS2 (Homo sapiens) (UniProt Q9NRM7)
# [17] = target: Calcium/calmodulin-dependent protein kinase kinase 2 (Homo sapiens) (UniProt Q96RR4)
# [18] = test system: Phosphatidylinositol 4,5-bisphosphate 3-kinase catalytic subunit alpha isoform (Homo sapiens), P42336 [E545K]
# [19] = target: Serine/threonine-protein kinase PAK 4 (Homo sapiens) (UniProt O96013)
# Sequence of Serine/threonine-protein kinase PAK 4 (Homo sapiens) (O96013 whole entry, looked up): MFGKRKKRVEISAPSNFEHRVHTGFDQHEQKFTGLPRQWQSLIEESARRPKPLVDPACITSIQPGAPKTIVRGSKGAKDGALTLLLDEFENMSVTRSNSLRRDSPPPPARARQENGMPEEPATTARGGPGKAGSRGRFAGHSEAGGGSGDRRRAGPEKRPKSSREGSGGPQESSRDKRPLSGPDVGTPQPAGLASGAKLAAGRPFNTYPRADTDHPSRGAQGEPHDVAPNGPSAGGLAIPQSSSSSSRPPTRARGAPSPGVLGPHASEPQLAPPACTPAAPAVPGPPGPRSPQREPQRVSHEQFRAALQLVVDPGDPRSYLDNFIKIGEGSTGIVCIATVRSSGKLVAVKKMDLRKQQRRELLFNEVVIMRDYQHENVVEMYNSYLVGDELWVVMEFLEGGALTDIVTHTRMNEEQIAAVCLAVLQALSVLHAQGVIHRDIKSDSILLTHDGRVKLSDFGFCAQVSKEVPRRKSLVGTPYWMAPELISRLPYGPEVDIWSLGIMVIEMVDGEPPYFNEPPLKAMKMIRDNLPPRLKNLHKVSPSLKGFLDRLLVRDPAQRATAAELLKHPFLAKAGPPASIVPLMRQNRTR
# [20] = target: Tyrosine-protein kinase Fgr (Homo sapiens) (UniProt P09769)
# Sequence of Tyrosine-protein kinase Fgr (Homo sapiens) (P09769 2-529 limits assumed): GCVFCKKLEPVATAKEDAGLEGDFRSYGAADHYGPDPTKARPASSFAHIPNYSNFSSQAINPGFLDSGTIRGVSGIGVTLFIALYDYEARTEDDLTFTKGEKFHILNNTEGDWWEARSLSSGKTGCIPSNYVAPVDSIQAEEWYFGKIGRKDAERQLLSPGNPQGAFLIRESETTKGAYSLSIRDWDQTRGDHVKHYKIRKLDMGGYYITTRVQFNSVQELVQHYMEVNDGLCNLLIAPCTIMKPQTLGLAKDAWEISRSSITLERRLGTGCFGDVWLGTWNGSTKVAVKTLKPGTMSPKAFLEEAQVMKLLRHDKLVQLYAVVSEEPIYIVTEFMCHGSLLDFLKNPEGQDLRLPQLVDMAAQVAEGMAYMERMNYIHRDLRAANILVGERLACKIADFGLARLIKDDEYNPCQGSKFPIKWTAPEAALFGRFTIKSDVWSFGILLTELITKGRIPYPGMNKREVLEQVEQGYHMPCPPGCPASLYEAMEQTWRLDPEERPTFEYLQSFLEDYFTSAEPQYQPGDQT
# [21] = target: Serine/threonine-protein kinase tousled-like 2 (Homo sapiens) (UniProt Q86UE8)
# [22] = target: Ephrin type-A receptor 1 (Homo sapiens) (UniProt P21709)
# [23] = target: Mitogen-activated protein kinase 4 (Homo sapiens) (UniProt P31152)
# [24] = target: Cyclin-dependent kinase 11B (Homo sapiens) (UniProt P21127)
# [25] = target: SRSF protein kinase 3 (Homo sapiens) (UniProt Q9UPE1)
# [26] = target: Beta-1 adrenergic receptor (Homo sapiens) (UniProt P08588); settings: Compound concentration 10.0 uM
# [27] = target: Cyclin-dependent kinase 19 (Homo sapiens) (UniProt Q9BWU1)
# Sequence of Cyclin-dependent kinase 19 (Homo sapiens) (Q9BWU1 whole entry): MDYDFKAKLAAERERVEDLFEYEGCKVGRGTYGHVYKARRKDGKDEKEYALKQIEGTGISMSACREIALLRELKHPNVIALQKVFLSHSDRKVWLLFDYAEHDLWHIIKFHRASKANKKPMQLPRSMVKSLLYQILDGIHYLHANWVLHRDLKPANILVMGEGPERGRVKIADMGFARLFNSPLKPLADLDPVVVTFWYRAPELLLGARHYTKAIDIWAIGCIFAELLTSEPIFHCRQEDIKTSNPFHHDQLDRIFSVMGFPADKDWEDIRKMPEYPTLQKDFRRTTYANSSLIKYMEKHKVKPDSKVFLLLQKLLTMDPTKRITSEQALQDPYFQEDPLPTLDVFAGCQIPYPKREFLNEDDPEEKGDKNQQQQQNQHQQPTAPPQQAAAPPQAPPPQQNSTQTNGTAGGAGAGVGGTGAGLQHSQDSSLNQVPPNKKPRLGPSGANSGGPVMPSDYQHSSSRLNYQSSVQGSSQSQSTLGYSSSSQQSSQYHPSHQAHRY
# [28] = target: Serine/threonine-protein kinase WNK4 (Homo sapiens) (UniProt Q96J92)
# [29] = test system: Tyrosine-protein kinase ABL1 (Homo sapiens), P00519 [F317I]
# [30] = test system: Tyrosine-protein kinase ABL1 (Homo sapiens), P00519 [E255K]
# [31] = target: Cyclin-dependent kinase 18 (Homo sapiens) (UniProt Q07002)
# Sequence of Cyclin-dependent kinase 18 (Homo sapiens) (Q07002 whole entry): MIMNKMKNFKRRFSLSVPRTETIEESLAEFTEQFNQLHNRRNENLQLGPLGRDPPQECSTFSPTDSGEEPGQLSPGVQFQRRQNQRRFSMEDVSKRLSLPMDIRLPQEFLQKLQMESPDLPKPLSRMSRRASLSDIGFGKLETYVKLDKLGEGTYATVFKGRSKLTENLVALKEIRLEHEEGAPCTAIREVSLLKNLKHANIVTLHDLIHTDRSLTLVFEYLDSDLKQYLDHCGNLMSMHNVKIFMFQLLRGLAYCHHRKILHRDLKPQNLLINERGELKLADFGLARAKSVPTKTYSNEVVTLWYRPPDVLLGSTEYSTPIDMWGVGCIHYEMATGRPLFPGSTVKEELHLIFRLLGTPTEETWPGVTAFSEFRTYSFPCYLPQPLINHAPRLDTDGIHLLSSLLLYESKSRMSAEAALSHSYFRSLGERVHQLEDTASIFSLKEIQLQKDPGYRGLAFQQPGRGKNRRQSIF
# [32] = target: Mitogen-activated protein kinase kinase kinase 9 (Homo sapiens) (UniProt P80192)
# Sequence of Mitogen-activated protein kinase kinase kinase 9 (Homo sapiens) (P80192 whole entry, looked up): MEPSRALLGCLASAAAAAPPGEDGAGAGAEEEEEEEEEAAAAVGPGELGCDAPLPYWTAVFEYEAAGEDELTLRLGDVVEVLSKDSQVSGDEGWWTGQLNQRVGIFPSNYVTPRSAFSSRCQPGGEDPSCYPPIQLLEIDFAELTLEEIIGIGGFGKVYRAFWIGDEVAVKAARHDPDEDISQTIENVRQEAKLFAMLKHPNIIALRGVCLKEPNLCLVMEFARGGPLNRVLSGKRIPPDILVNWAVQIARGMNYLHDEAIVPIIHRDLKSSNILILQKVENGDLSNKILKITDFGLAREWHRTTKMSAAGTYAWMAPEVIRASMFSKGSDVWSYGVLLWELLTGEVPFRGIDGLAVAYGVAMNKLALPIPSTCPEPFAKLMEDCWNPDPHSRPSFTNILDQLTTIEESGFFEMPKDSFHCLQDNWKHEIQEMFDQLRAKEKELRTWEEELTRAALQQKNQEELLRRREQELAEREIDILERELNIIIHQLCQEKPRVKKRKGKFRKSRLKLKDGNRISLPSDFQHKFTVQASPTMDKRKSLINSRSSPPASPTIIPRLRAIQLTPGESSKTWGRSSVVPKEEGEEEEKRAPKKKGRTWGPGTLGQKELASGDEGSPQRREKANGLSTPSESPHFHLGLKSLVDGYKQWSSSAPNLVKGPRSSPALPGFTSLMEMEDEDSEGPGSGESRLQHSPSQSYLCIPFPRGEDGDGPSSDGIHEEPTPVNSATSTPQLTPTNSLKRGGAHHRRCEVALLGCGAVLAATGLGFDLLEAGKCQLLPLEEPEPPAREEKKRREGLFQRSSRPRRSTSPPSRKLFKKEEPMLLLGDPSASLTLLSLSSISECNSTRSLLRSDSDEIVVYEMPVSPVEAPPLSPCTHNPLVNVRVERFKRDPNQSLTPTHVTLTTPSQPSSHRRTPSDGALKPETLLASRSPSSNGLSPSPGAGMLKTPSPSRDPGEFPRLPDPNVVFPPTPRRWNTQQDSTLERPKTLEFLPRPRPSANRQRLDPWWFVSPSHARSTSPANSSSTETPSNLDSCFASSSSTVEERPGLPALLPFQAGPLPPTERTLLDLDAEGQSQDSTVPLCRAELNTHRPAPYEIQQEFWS
# [33] = target: Serine/threonine-protein kinase VRK2 (Homo sapiens) (UniProt Q86Y07)
# [34] = target: Phosphatidylinositol 4-kinase beta (Homo sapiens) (UniProt Q9UBF8)
# [35] = test system: Phosphatidylinositol 4,5-bisphosphate 3-kinase catalytic subunit alpha isoform (Homo sapiens), P42336 [H1047L]
# [36] = target: Serine/threonine-protein kinase SIK3 (Homo sapiens) (UniProt Q9Y2K2)
# [37] = target: Serine/threonine-protein kinase RIO3 (Homo sapiens) (UniProt O14730)
# [38] = test system: Leucine-rich repeat serine/threonine-protein kinase 2 (Homo sapiens), Q5S007 [G2019S]
# [39] = target: Insulin receptor (Homo sapiens) (UniProt P06213)
# [40] = target: Myosin light chain kinase family member 4 (Homo sapiens) (UniProt Q86YV6)
# [41] = target: Serine/threonine-protein kinase tousled-like 1 (Homo sapiens) (UniProt Q9UKI8)
# [42] = target: Ephrin type-A receptor 2 (Homo sapiens) (UniProt P29317)
# [43] = target: Serine/threonine-protein kinase 25 (Homo sapiens) (UniProt O00506)
# Sequence of Serine/threonine-protein kinase 25 (Homo sapiens) (O00506 whole entry, looked up): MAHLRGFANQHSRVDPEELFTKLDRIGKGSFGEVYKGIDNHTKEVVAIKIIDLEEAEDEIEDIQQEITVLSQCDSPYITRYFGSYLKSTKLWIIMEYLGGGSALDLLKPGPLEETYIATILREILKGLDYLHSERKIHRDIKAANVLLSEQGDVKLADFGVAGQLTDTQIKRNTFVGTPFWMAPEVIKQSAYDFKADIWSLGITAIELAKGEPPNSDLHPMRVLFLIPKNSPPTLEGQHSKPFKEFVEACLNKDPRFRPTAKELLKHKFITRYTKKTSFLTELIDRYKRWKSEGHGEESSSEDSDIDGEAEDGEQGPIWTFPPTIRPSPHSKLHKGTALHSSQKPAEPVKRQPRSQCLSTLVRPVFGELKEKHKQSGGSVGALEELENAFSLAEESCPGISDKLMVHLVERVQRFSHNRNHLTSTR
# [44] = target: Serine/threonine-protein kinase pim-3 (Homo sapiens) (UniProt Q86V86)
# [45] = test system: Proto-oncogene tyrosine-protein kinase receptor Ret (Homo sapiens), P07949 [V804M]
# [46] = Compound concentration 100.0 nM
# [47] = Compound concentration 1000.0 nM
smiles,measurement,setting,value
C[C@H](c1ccnc(Nc2nc3ccc(-c4cc(N(C)C)ncn4)cc3[nH]2)c1)N1CCN(C(=O)CC(F)(F)F)CC1 [BAY-985],inhibition,[1],6.47%
same,inhibition,[2],-2.73%
same,residual activity,[3]; [46],100%
same,residual activity,[4]; [46],96%
same,residual activity,[5]; [46],100%
same,residual activity,[6]; [46],89%
same,inhibition,[7],29%
same,residual activity,[8]; [46],100%
same,residual activity,[9]; [46],53%
same,residual activity,[10]; [46],100%
same,residual activity,[11]; [46],100%
same,residual activity,[12]; [46],100%
same,inhibition,[13],11.9%
same,residual activity,[14]; [46],100%
same,inhibition,[15],33.3%
same,residual activity,[16]; [46],80%
same,residual activity,[17]; [46],77%
same,residual activity,[18]; [46],100%
same,residual activity,[19]; [46],81%
same,residual activity,[20]; [46],85%
same,residual activity,[21]; [46],99%
same,residual activity,[22]; [46],99%
same,residual activity,[23]; [46],100%
same,residual activity,[24]; [46],100%
same,residual activity,[25]; [46],100%
same,inhibition,[26],24.3%
same,residual activity,[27]; [46],93%
same,residual activity,[28]; [46],80%
same,residual activity,[29]; [46],100%
same,residual activity,[30]; [46],97%
same,residual activity,[31]; [46],89%
same,residual activity,[32]; [46],100%
same,residual activity,[33]; [46],94%
same,residual activity,[34]; [46],100%
same,residual activity,[35]; [46],100%
same,residual activity,[36]; [46],100%
same,residual activity,[37]; [46],97%
same,residual activity,[38]; [46],100%
same,residual activity,[39]; [46],100%
same,residual activity,[40]; [46],100%
same,residual activity,[41]; [46],76%
same,residual activity,[42]; [46],100%
same,residual activity,[43]; [46],100%
same,residual activity,[44]; [46],87%
same,residual activity,[45]; [46],76%
CN(C)c1ncnc(-c2ccc3nc(Nc4cc(CN5CCN(C(=O)CC(F)(F)F)CC5)ccn4)[nH]c3c2)c1Cl [BAY-440],inhibition,[1],13.9%
same,inhibition,[2],13.9%
same,residual activity,[3]; [47],100%
same,residual activity,[4]; [47],95%
same,residual activity,[5]; [47],80%
same,residual activity,[6]; [47],83%
same,inhibition,[7],2.06%
same,residual activity,[8]; [47],100%
same,residual activity,[9]; [47],29%
same,residual activity,[10]; [47],74%
same,residual activity,[11]; [47],100%
same,residual activity,[12]; [47],95%
same,inhibition,[13],23.6%
same,residual activity,[14]; [47],90%
same,inhibition,[15],12.6%
same,residual activity,[16]; [47],53%
same,residual activity,[17]; [47],88%
same,residual activity,[18]; [47],76%
same,residual activity,[19]; [47],100%
same,residual activity,[20]; [47],98%
same,residual activity,[21]; [47],100%
same,residual activity,[22]; [47],100%
same,residual activity,[23]; [47],100%
same,residual activity,[24]; [47],100%
same,residual activity,[25]; [47],100%
same,inhibition,[26],-6.2%
same,residual activity,[27]; [47],75%
same,residual activity,[28]; [47],53%
same,residual activity,[29]; [47],28%
same,residual activity,[30]; [47],49%
same,residual activity,[31]; [47],100%
same,residual activity,[32]; [47],90%
same,residual activity,[33]; [47],88%
same,residual activity,[34]; [47],100%
same,residual activity,[35]; [47],61%
same,residual activity,[36]; [47],83%
same,residual activity,[37]; [47],92%
same,residual activity,[38]; [47],69%
same,residual activity,[39]; [47],100%
same,residual activity,[40]; [47],100%
same,residual activity,[41]; [47],89%
same,residual activity,[42]; [47],100%
same,residual activity,[43]; [47],100%
same,residual activity,[44]; [47],100%
same,residual activity,[45]; [47],93%

# Source: ChEMBL document CHEMBL4507318, “Data for DCP probe BAY-985” (2021)
